Experiments:
Type in all cases: in vivo
[1] = tested on: contact burn injury on the back of rats; test: Contact burn injury in rats: animals that died within 7 days; conditions: within 7 days after burn injury, 10 mg/5 ml/kg intravenously, twice a day for 7 days, 7 animals in group
Method: (§1) To confirm the therapeutic effect of 2-hydroxy-TTBA against burn injury, contact burn injury is induced for 30 seconds on the back of rats (on the both side of skin) using a brass comb preheated for 3 minutes in the boiling water (maintaining at 100° C.). After 5 minutes, 2-hydroxy-TTBA 10 mg/5 ml/kg were administered to intravenously for 5 minutes. Since then, twice-a-day administration (at an interval of 10˜12 hours) was sustained for 7 days on the same conditions. The same amount of saline without the compound was administered to the vehicle-treated group in the same manner. Groups of burn experiments were the same as below table 1.
When analyzing the results, number of animals of the normal group for comparison, number of animals in each group, and the number of animals that died within 7 days after the burn injury were shown in above table 1. Two rats in the burn control group died at 5 and 7 days, respectively, after burn injury, but all of another experimental group survived.

[2] = tested on: contact burn injury on the back of rats; test: Measurement of lactate dehydrogenase in serum through blood chemistry after burn injury; conditions: 10 mg/5 ml/kg intravenously twice a day, FIG. 1
Method: as §1
The Measurement of Lactate Dehydrogenase in Serum Through Blood Chemistry
Lactate dehydrogenase (LDH) is an enzyme distributed to almost all the tissues and catalyzing reversible reactions between pyruvic acid and lactic acid.
It is known that serum LDH level is elevated when tissues and cells are destroyed. Thus, the amount of LDH was measured in serum samples from each group except hemolyzed samples that may interfere with test results.

[3] = tested on: contact burn injury on the back of rats; test: Observation of skin appearance on the back after burn injury (zone of stasis); conditions: skin on the back 7 days after burn injury, FIG. 2
Method: as §1
FIG. 2 is photographs that observed skin on the back 7 days after burn injury. Full thickness burns were induced in the both sides of back of experimental rats using a preheated brass comb with 4 rectangular shapes of size 10×20 mm. At 2 hours after induction, 4 pale-colored or darkish zones of coagulation (or zones of tissue necrosis) and 3 zones of stasis (or zones of tissue injury) appeared on the both sides of back. […]
Therefore, to evaluate the efficacy in this experiment, among the zone of stasis, the remaining 4 regions (a rectangular area indicated the dotted lines) except regions toward the head close to a medication vest among 6 areas appeared in a single rat were analyzed.

[4] = tested on: contact burn injury on the back of rats; test: Histology of zone of stasis after burn injury (hematoxylin-eosin, cresyl violet, Masson's trichrom staining)
Method: as §1
FIG. 3 is the result comparing the state of the epithelial layer through hematoxylin-eosin staining of tissues according to the groups. […] Some cases that hyperplasia of epidermis thicker than normal epithelial layers occurred could be also observed.
Eschar formation and frequency of wound epidermis formation was measured by analyzing total 28 tissue areas per group (4 zones of stasis per rat, 7 rats per group). As a result, the wound switching frequency of approximately 93% occurred in the burn control group was decreased to about 18% and 4%, respectively, in the veheicle-treated and 2-hydroxy-TTBA-treated groups. Also, the rate of wound epidermis formation was increased by approximately 32% and 72%, respectively, in comparison with the burn control group. The result was shown in the below table 2 (histological appearance: Eschar Formation and frequency of wound epidermis formation).
FIG. 4 was the photograph that observed the state of tissues of full-thickness skin through hematoxylin-eosin staining via 10× microscope.
FIG. 5 is the photograph observed the live cells in the zone of stasis by cresyl violet staining via 10× microscope. In the burn control group and the vehicle-treated group, follicles were rarely observed and large amounts of inflammatory cells were observed throughout the full-thickness skin.
FIG. 6 is the photograph that observed collagen of skin tissues and muscle fibers in the zone of stasis by Masson's trichrom staining. In the normal group, blue-stained collagen was evenly distributed throughout the dermis, and muscle fibers were stained red. In the burn control group, collagen was deposited irregularly below eschar, the level of staining was weak relative to the normal group. Almost of the muscle fibers were damaged and were not stained. In the vehicle-treated group, the amount of collagen was most abundantly observed relative to the other groups, even to a very high level compared to the normal control. In addition, the muscle fibers with damage were not stained, and significant amount of bleeding and infiltration of inflammatory cells were accompanied.

[5] = 28 tissue areas per group (4 zones of stasis per rat, 7 rats), 7 days after burn
[6] = zone of stasis, 7 days after burn, FIG. 4

Compound: O=C(O)c1cc(NCc2c(F)c(F)c(C(F)(F)F)c(F)c2F)ccc1O [2-hydroxy-TTBA, 2-Hydroxy-5-(2,3,5,6-tetrafluoro-4-trifluoromethyl-benzylamino)-benzoic acid]
- Number of dead animals [1]: 0
- LDH value in serum compared to burn control group [2]: reduced significantly
- Skin condition by the naked eye [3]: restored to such a good skin condition that hair growth can be observed by the naked eye
- Formation of eschar such as scab (skin appearance) ([3]; zone of stasis): occurred rarely
- rate of wound epidermis formation, increase in comparison with the burn control group ([4]; 28 tissue areas per group): ~72%
- Eschar formation (%) [4, 5]: 3.571%
- Wound epidermis formation (%) [4, 5]: 71.429%
- Eschar formation frequency ([4]; 28 tissue areas per group, approximately 93% in burn control group): ~4%
- State of the epithelial layer, hematoxylin-eosin staining ([4]; FIG. 3): wound epidermis formation was in progress
- Inflammatory cells in the zone of stasis, cresyl violet staining ([4]; FIG. 5): relatively few inflammatory cells were observed
- Live cells in the zone of stasis, cresyl violet staining ([4]; FIG. 5): live follicles and epithelia were observed
- Infiltration of inflammatory cells in full-thickness skin, hematoxylin-eosin staining [4, 6]: considerably inhibited except in the areas of muscle cells and subcutaneous tissues
- Protection of skin structures in full-thickness skin, hematoxylin-eosin staining [4, 6]: not only a wound epidermis formation but also protective effects even in the hair follicles, sebaceous glands and muscle layers appeared

Source: US20120289602A1, “PHARMACEUTICAL COMPOSITION FOR TREATING OR PREVENTING BURN INJURIES” (priority 2009, published 2012)
